From the supplement of paper PMC10307832

Legend:
Assay in all cases: relative viability (nuclei count vs DMSO), 5 days (fraction); higher = more cells survive
[1] = compound: CCC1=CN=CN=C1N2CCN(CC2)CC3=NC4=C(N3)C=C(C=C4)C(F)(F)F + N=C(N)NC(=N)NCCc1ccccc1 [Phenformin] (partner 250 µM)
Summary of the method: (§1)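 Lung cancer cell lines in 1536-well plates got either a single drug or a fixed anchor-drug dose together with five library-drug doses (not always all listed) in √10 steps, by pin tool, on the day after seeding. Nuclei were counted after 5 days, and relative viability is the treated-to-vehicle ratio of nuclei counts. Values are medians of duplicate plates.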

[2] = compound: CCC1=CN=CN=C1N2CCN(CC2)CC3=NC4=C(N3)C=C(C=C4)C(F)(F)F + Nc1ncn([C@H]2C[C@H](O)[C@@H](CO)O2)c(=O)n1 [Decitabine] (partner 2 µM)
Summary of the method: as §1

[3] = compound: CCn1c(-c2nonc2N)nc2cnc(Oc3cccc(NC(=O)c4ccc(OCCN5CCOCC5)cc4)c3)cc21 + Cc1nc(NC(=O)N2CCC[C@H]2C(N)=O)sc1-c1ccnc(C(C)(C)C(F)(F)F)c1 [Alpelisib] (partner 2 µM)
Summary of the method: as §1

Mirin + Lapatinib = compound: N=C1NC(=O)/C(=C/c2ccc(O)cc2)S1 [Mirin] + CS(=O)(=O)CCNCc1ccc(-c2ccc3ncnc(Nc4ccc(OCc5cccc(F)c5)c(Cl)c4)c3c2)o1 [Lapatinib] (partner 2 µM)
Summary of the method: as §1

Cell Line: NCI-H1437
- relative viability ([1]; first compound 0.04 µM): 0.343
- relative viability ([1]; first compound 0.1265 µM): 0.295
- relative viability ([1]; first compound 0.4 µM): 0.302
- relative viability ([1]; first compound 1.265 µM): 0.255
- relative viability ([1]; first compound 4 µM): 0.317
- relative viability ([2]; first compound 0.04 µM): 0.537
- relative viability ([2]; first compound 0.1265 µM): 0.529
- relative viability ([2]; first compound 0.4 µM): 0.531
- relative viability ([2]; first compound 1.265 µM): 0.589
- relative viability ([2]; first compound 4 µM): 0.487
- relative viability ([3]; first compound 0.04 µM): 1.06
- relative viability ([3]; first compound 0.1265 µM): 0.888
- relative viability ([3]; first compound 0.4 µM): 0.833
- relative viability ([3]; first compound 1.265 µM): 0.809
- relative viability ([3]; first compound 4 µM): 0.753
- relative viability (Mirin + Lapatinib; first compound 0.25 µM): 0.912
- relative viability (Mirin + Lapatinib; first compound 0.7906 µM): 0.741
- relative viability (Mirin + Lapatinib; first compound 2.5 µM): 0.776
- relative viability (Mirin + Lapatinib; first compound 7.906 µM): 0.762
- relative viability (Mirin + Lapatinib; first compound 25 µM): 0.394

Cell Line: PC-14
- relative viability ([1]; first compound 0.04 µM): 0.463
- relative viability ([1]; first compound 0.1265 µM): 0.472
- relative viability ([1]; first compound 0.4 µM): 0.561
- relative viability ([1]; first compound 1.265 µM): 0.669
- relative viability ([1]; first compound 4 µM): 0.567
- relative viability ([2]; first compound 0.04 µM): 0.209
- relative viability ([2]; first compound 0.1265 µM): 0.159
- relative viability ([2]; first compound 0.4 µM): 0.22
- relative viability ([2]; first compound 1.265 µM): 0.205
- relative viability ([2]; first compound 4 µM): 0.228
- relative viability ([3]; first compound 0.04 µM): 1.06
- relative viability ([3]; first compound 0.1265 µM): 0.935
- relative viability ([3]; first compound 0.4 µM): 0.871
- relative viability ([3]; first compound 1.265 µM): 0.77
- relative viability ([3]; first compound 4 µM): 0.805
- relative viability (Mirin + Lapatinib; first compound 0.25 µM): 0.373
- relative viability (Mirin + Lapatinib; first compound 0.7906 µM): 0.39
- relative viability (Mirin + Lapatinib; first compound 2.5 µM): 0.339
- relative viability (Mirin + Lapatinib; first compound 7.906 µM): 0.382
- relative viability (Mirin + Lapatinib; first compound 25 µM): 0.49

Cell Line: EBC-1
- relative viability ([3]; first compound 0.04 µM): 1.02
- relative viability ([3]; first compound 0.1265 µM): 0.767
- relative viability ([3]; first compound 0.4 µM): 0.678
- relative viability ([3]; first compound 1.265 µM): 0.733
- relative viability ([3]; first compound 4 µM): 0.557
- relative viability (Mirin + Lapatinib; first compound 0.25 µM): 0.203
- relative viability (Mirin + Lapatinib; first compound 0.7906 µM): 0.208
- relative viability (Mirin + Lapatinib; first compound 2.5 µM): 0.219
- relative viability (Mirin + Lapatinib; first compound 7.906 µM): 0.201
- relative viability (Mirin + Lapatinib; first compound 25 µM): 0.221

Cell Line: NCI-H1650
- relative viability ([1]; first compound 0.04 µM): 0.484
- relative viability ([1]; first compound 0.1265 µM): 0.519
- relative viability ([1]; first compound 0.4 µM): 0.392
- relative viability ([1]; first compound 4 µM): 0.416
- relative viability ([2]; first compound 0.04 µM): 0.372
- relative viability ([2]; first compound 0.1265 µM): 0.419
- relative viability ([2]; first compound 0.4 µM): 0.377
- relative viability ([2]; first compound 1.265 µM): 0.417
- relative viability ([2]; first compound 4 µM): 0.536
- relative viability (Mirin + Lapatinib; first compound 0.25 µM): 0.774
- relative viability (Mirin + Lapatinib; first compound 0.7906 µM): 0.501
- relative viability (Mirin + Lapatinib; first compound 2.5 µM): 0.891
- relative viability (Mirin + Lapatinib; first compound 7.906 µM): 0.708
- relative viability (Mirin + Lapatinib; first compound 25 µM): 0.465

Cell Line: NCI-H1563
- relative viability ([1]; first compound 0.04 µM): 0.713
- relative viability ([1]; first compound 0.1265 µM): 0.639
- relative viability ([1]; first compound 0.4 µM): 0.662
- relative viability ([1]; first compound 1.265 µM): 0.661
- relative viability ([1]; first compound 4 µM): 0.689
- relative viability ([3]; first compound 0.04 µM): 0.96
- relative viability ([3]; first compound 0.1265 µM): 0.878
- relative viability ([3]; first compound 0.4 µM): 0.825
- relative viability ([3]; first compound 1.265 µM): 0.766
- relative viability ([3]; first compound 4 µM): 0.712
- relative viability (Mirin + Lapatinib; first compound 0.25 µM): 1.05
- relative viability (Mirin + Lapatinib; first compound 0.7906 µM): 1.09
- relative viability (Mirin + Lapatinib; first compound 2.5 µM): 1.09
- relative viability (Mirin + Lapatinib; first compound 7.906 µM): 0.867
- relative viability (Mirin + Lapatinib; first compound 25 µM): 0.853

Cell Line: NCI-H1648
- relative viability ([2]; first compound 0.04 µM): 0.502
- relative viability ([2]; first compound 1.265 µM): 0.511
- relative viability ([2]; first compound 4 µM): 0.502

Cell Line: NCI-H1299
- relative viability ([3]; first compound 0.04 µM): 0.991
- relative viability ([3]; first compound 0.1265 µM): 0.891
- relative viability ([3]; first compound 0.4 µM): 0.836
- relative viability ([3]; first compound 1.265 µM): 0.912
- relative viability ([3]; first compound 4 µM): 0.861
- relative viability (Mirin + Lapatinib; first compound 0.25 µM): 0.984
- relative viability (Mirin + Lapatinib; first compound 0.7906 µM): 0.973
- relative viability (Mirin + Lapatinib; first compound 2.5 µM): 0.977
- relative viability (Mirin + Lapatinib; first compound 7.906 µM): 1.01
- relative viability (Mirin + Lapatinib; first compound 25 µM): 1.12

Cell Line: NCI-H1623
- relative viability ([1]; first compound 0.04 µM): 0.58
- relative viability ([1]; first compound 0.1265 µM): 0.543
- relative viability ([1]; first compound 0.4 µM): 0.604
- relative viability ([1]; first compound 1.265 µM): 0.525
- relative viability ([1]; first compound 4 µM): 0.62

Cell Line: NCI-H1703
- relative viability ([3]; first compound 0.04 µM): 0.385
- relative viability ([3]; first compound 0.1265 µM): 0.428
- relative viability ([3]; first compound 0.4 µM): 0.254
- relative viability ([3]; first compound 1.265 µM): 0.209
- relative viability ([3]; first compound 4 µM): 0.164
- relative viability (Mirin + Lapatinib; first compound 0.25 µM): 1.11
- relative viability (Mirin + Lapatinib; first compound 0.7906 µM): 1.23
- relative viability (Mirin + Lapatinib; first compound 2.5 µM): 1.29
- relative viability (Mirin + Lapatinib; first compound 7.906 µM): 0.768
- relative viability (Mirin + Lapatinib; first compound 25 µM): 0.826

Cell Line: NCI-H2228
- relative viability ([1]; first compound 0.04 µM): 0.313
- relative viability ([1]; first compound 0.1265 µM): 0.341
- relative viability ([1]; first compound 0.4 µM): 0.286
- relative viability ([1]; first compound 1.265 µM): 0.312
- relative viability ([1]; first compound 4 µM): 0.399
- relative viability ([3]; first compound 0.04 µM): 1.14
- relative viability ([3]; first compound 0.1265 µM): 0.998
- relative viability ([3]; first compound 0.4 µM): 0.776
- relative viability ([3]; first compound 1.265 µM): 0.732
- relative viability ([3]; first compound 4 µM): 0.644
- relative viability (Mirin + Lapatinib; first compound 0.25 µM): 0.88
- relative viability (Mirin + Lapatinib; first compound 0.7906 µM): 1
- relative viability (Mirin + Lapatinib; first compound 2.5 µM): 1.51
- relative viability (Mirin + Lapatinib; first compound 7.906 µM): 1.12
- relative viability (Mirin + Lapatinib; first compound 25 µM): 0.921

Cell Line: NCI-H522
- relative viability ([1]; first compound 0.04 µM): 0.628
- relative viability ([1]; first compound 0.1265 µM): 0.583
- relative viability ([1]; first compound 0.4 µM): 0.571
- relative viability ([1]; first compound 1.265 µM): 0.64
- relative viability ([1]; first compound 4 µM): 0.601
- relative viability ([2]; first compound 0.04 µM): 0.666
- relative viability ([2]; first compound 0.1265 µM): 0.63
- relative viability ([2]; first compound 0.4 µM): 0.821
- relative viability ([2]; first compound 1.265 µM): 0.621
- relative viability ([2]; first compound 4 µM): 0.797

Cell Line: Calu-6
- relative viability ([3]; first compound 0.04 µM): 0.861
- relative viability ([3]; first compound 0.1265 µM): 0.827
- relative viability ([3]; first compound 0.4 µM): 0.582
- relative viability ([3]; first compound 1.265 µM): 0.477
- relative viability ([3]; first compound 4 µM): 0.455
- relative viability (Mirin + Lapatinib; first compound 0.25 µM): 1.11
- relative viability (Mirin + Lapatinib; first compound 0.7906 µM): 1.12
- relative viability (Mirin + Lapatinib; first compound 2.5 µM): 1.06
- relative viability (Mirin + Lapatinib; first compound 7.906 µM): 1.01
- relative viability (Mirin + Lapatinib; first compound 25 µM): 0.983

Cell Line: ChaGo-K-1
- relative viability ([1]; first compound 0.04 µM): 0.462
- relative viability ([1]; first compound 0.1265 µM): 0.5
- relative viability ([1]; first compound 0.4 µM): 0.409
- relative viability ([1]; first compound 1.265 µM): 0.443
- relative viability ([1]; first compound 4 µM): 0.482
- relative viability ([2]; first compound 0.04 µM): 0.554
- relative viability ([2]; first compound 0.1265 µM): 0.471
- relative viability ([2]; first compound 0.4 µM): 0.526
- relative viability ([2]; first compound 1.265 µM): 0.501
- relative viability ([2]; first compound 4 µM): 0.488

Cell Line: LCLC-103H
- relative viability ([1]; first compound 0.04 µM): 0.303
- relative viability ([1]; first compound 0.1265 µM): 0.294
- relative viability ([1]; first compound 0.4 µM): 0.322
- relative viability ([1]; first compound 1.265 µM): 0.289
- relative viability ([1]; first compound 4 µM): 0.348
- relative viability ([2]; first compound 0.04 µM): 0.708
- relative viability ([2]; first compound 0.1265 µM): 0.698
- relative viability ([2]; first compound 0.4 µM): 0.712
- relative viability ([2]; first compound 1.265 µM): 0.748
- relative viability ([2]; first compound 4 µM): 0.728
- relative viability ([3]; first compound 0.04 µM): 1.2
- relative viability ([3]; first compound 0.1265 µM): 0.935
- relative viability ([3]; first compound 0.4 µM): 0.961
- relative viability ([3]; first compound 1.265 µM): 1.11
- relative viability ([3]; first compound 4 µM): 1.03
